From PubChem BioAssay AID463235 (The Scripps Research Institute Molecular Screening Center, 2010)
The source made the active and inactive calls. The rule behind the calls is not given here.

Experiment: inhibitors of HCV replicon RNA replication – cell-based, luminescence, HCV NS3 helicase inhibitor project, late-stage follow-up (AID 463235)
Settings: HCV replicon cells, RNA blot hybridization, 3 days; for IC90: measured here: 90% replicon inhibition

Compound | IC50 | IC90 [µM]
CCCCCOc1ccc(C2C(C(=O)c3ccc(C)o3)=C(O)C(=O)N2c2cc(C)on2)cc1 (centres undefined) | > 10 µM (inactive) | > 10
COc1cccc(-n2c(SCc3cc(=O)oc4cc(O)c(O)cc34)nc3ccccc3c2=O)c1 | > 10 µM (inactive) | > 10
Cc1ccc(C(=O)C2=C(O)C(=O)N(Cc3ccco3)C2c2cccc(Cl)c2)o1 (centres undefined) | > 10 µM (inactive) | > 10
COc1cc(C2C(C(=O)c3ccc(C)o3)=C(O)C(=O)N2c2cc(C)on2)ccc1OCc1ccccc1 (centres undefined) | > 10 µM (inactive) | > 10
CCOc1cccc(C2C(C(=O)c3ccc(C)o3)=C(O)C(=O)N2Cc2ccccc2)c1 (centres undefined) | > 10 µM (inactive) | > 10
Cc1cc(N2C(=O)C(O)=C(C(=O)c3ccc(C)o3)C2c2ccc(OCc3ccccc3)cc2)no1 (centres undefined) | > 10 µM (inactive) | > 10
COc1ccc(C=NNC(=O)c2cc(O)c(O)c(O)c2)cc1COc1ccc(C(=O)OCC(C)C)cc1 | > 10 µM (inactive) | > 10
